The supplement of paper PMC10307832

Assays:
Assay in all cases: relative viability (nuclei count vs DMSO), 5 days (fraction); higher = more cells survive
[1] = compound: C1=CC=C(C(=C1)C2=CC=C(C=C2)C3=CSC4=C3C(=C(C(=O)N4)C#N)O)O + COc1cc2c(Oc3ccc(NC(=O)C4(C(=O)Nc5ccc(F)cc5)CC4)cc3F)ccnc2cc1OCCCN1CCOCC1 [Foretinib] (partner 0.25 µM)
Method in brief: (§1)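 Lung cancer cell lines were seeded in 1536-well plates and dosed by pin tool the next day, with either a single drug or a fixed anchor-drug dose combined with five library-drug doses (not always all listed) spaced in √10 steps. Five days later, one step fixed the cells and stained their nuclei (final 0.05% Triton X-100, 1% formaldehyde, 1 ug/ml Hoechst), and nuclei were counted on 4× images. Relative viability is the nuclei count in treated wells divided by the count in vehicle wells, and each value is the median of duplicate plates.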

[2] = compound: C1=CC=C(C(=C1)C2=CC=C(C=C2)C3=CSC4=C3C(=C(C(=O)N4)C#N)O)O + CS(=O)(=O)CCNCc1ccc(-c2ccc3ncnc(Nc4ccc(OCc5cccc(F)c5)c(Cl)c4)c3c2)o1 [Lapatinib] (partner 2 µM)
Method in brief: as §1

[3] = compound: CC1=CN2C(=O)C=C(N=C2C(=C1)C(C)NC3=CC=CC=C3)N4CCOCC4 [TGX 221] + Cc1cc(Nc2cc(N3CCN(C)CC3)nc(Sc3ccc(NC(=O)C4CC4)cc3)n2)n[nH]1 [Tozasertib] (partner 0.1 µM)
Method in brief: as §1

[4] = compound: CC1=CN2C(=O)C=C(N=C2C(=C1)C(C)NC3=CC=CC=C3)N4CCOCC4 [TGX 221] + Nc1ncn([C@H]2C[C@H](O)[C@@H](CO)O2)c(=O)n1 [Decitabine] (partner 2 µM)
Method in brief: as §1

| Cell Line | relative viability ([1]; first compound 0.08 µM) | relative viability ([1]; first compound 0.253 µM) | relative viability ([1]; first compound 0.8 µM) | relative viability ([1]; first compound 2.53 µM) | relative viability ([1]; first compound 8 µM) | relative viability ([2]; first compound 0.253 µM) | relative viability ([2]; first compound 0.8 µM) | relative viability ([2]; first compound 2.53 µM) | relative viability ([2]; first compound 8 µM) | relative viability ([3]; first compound 0.08 µM) | relative viability ([3]; first compound 0.253 µM) | relative viability ([3]; first compound 0.8 µM) | relative viability ([3]; first compound 2.53 µM) | relative viability ([3]; first compound 8 µM) | relative viability ([4]; first compound 0.08 µM) | relative viability ([4]; first compound 0.253 µM) | relative viability ([4]; first compound 0.8 µM) | relative viability ([4]; first compound 2.53 µM) | relative viability ([4]; first compound 8 µM) | relative viability ([2]; first compound 0.08 µM) |
| --- | --- | --- | --- | --- | --- | --- | --- | --- | --- | --- | --- | --- | --- | --- | --- | --- | --- | --- | --- | --- |
| EPLC-272H | 0.613 | 0.813 | 0.772 | 0.708 | 0.524 | 0.924 | 0.849 | 0.897 | 1.01 | 0.187 | 0.275 | 0.282 | 0.186 | 0.138 | 0.352 | 0.349 | 0.316 | 0.343 | 0.332 |  |
| NCI-H2087 | 1.35 | 1.27 | 1.06 | 1.11 | 0.792 | 1.11 | 1.01 | 1.19 | 1.04 | 0.254 | 0.269 | 0.231 | 0.217 | 0.233 | 0.231 | 0.261 | 0.235 | 0.252 | 0.304 | 1.05 |
| A-427 | 1.16 | 1.18 | 1.19 | 1.1 | 1.18 | 1.06 | 1.2 | 1.03 | 1.2 | 0.194 | 0.213 | 0.211 | 0.197 | 0.208 | 0.548 | 0.55 | 0.558 | 0.594 | 0.519 | 0.917 |
| NCI-H460 | 1.18 | 1.11 | 0.972 | 1 | 0.569 | 1.09 | 0.868 | 1.24 | 0.747 | 0.383 | 0.489 | 0.639 | 0.0964 | 0.131 | 0.488 | 0.442 | 0.489 | 0.453 | 0.401 |  |
| NCI-H23 | 0.906 | 1.04 | 1.19 | 1.05 | 0.896 | 1.09 | 1.19 | 1.08 | 0.843 | 0.461 | 0.393 | 0.386 | 0.322 | 0.241 | 0.35 | 0.329 | 0.271 | 0.33 | 0.322 | 1.36 |
| NCI-H1437 | 1.24 | 1.32 | 1.36 | 1.37 | 1.1 | 0.794 | 0.772 | 0.891 | 0.527 | 0.383 | 0.406 | 0.404 | 0.361 | 0.311 | 0.574 | 0.56 | 0.619 | 0.545 | 0.574 | 0.72 |
| EKVX | 0.882 | 0.828 | 0.799 | 0.831 | 0.743 | 0.208 | 0.201 | 0.195 | 0.211 | 0.381 | 0.343 | 0.329 | 0.317 | 0.272 | 0.346 | 0.313 | 0.345 | 0.367 | 0.307 | 0.225 |
| NCI-H1650 | 0.795 | 1.52 | 1.31 | 1.22 | 0.935 | 0.872 | 0.811 | 0.72 | 0.54 | 0.399 | 0.412 | 0.381 | 0.297 | 0.235 | 0.433 | 0.376 | 0.386 | 0.486 | 0.43 |  |
| HARA | 0.721 | 1.08 | 0.938 | 0.882 | 0.706 | 1.03 | 0.821 | 0.762 | 0.738 | 0.147 | 0.105 | 0.123 | 0.1 | 0.0992 | 0.604 | 0.488 | 0.529 | 0.504 | 0.433 |  |
| HCC-366 | 1.03 | 0.974 | 0.949 | 0.992 | 0.959 | 0.948 | 1.24 | 1.01 | 1.01 | 0.0834 | 0.113 | 0.283 | 0.0517 | 0.0636 | 0.333 | 0.305 | 0.345 | 0.344 | 0.365 | 1.24 |
| SW 1573 | 0.836 | 0.864 | 0.884 | 0.916 | 0.837 | 1.12 | 1.21 | 1.11 | 0.862 | 0.175 | 0.208 | 0.211 | 0.165 | 0.207 | 0.457 | 0.387 | 0.535 | 0.517 | 0.524 | 0.991 |
| SK-MES-1 | 0.885 | 1.02 | 0.905 | 0.852 | 0.837 | 0.51 | 0.441 | 0.457 | 0.463 | 0.897 | 0.992 | 0.916 | 0.957 | 0.796 | 0.397 | 0.365 | 0.373 | 0.395 | 0.36 | 0.435 |
| HCC-827 | 1.11 | 1.04 | 1.04 | 1.06 | 0.969 | 0.201 | 0.197 | 0.184 | 0.18 | 0.414 | 0.436 | 0.424 | 0.401 | 0.349 | 0.292 | 0.359 | 0.281 | 0.305 | 0.327 | 0.185 |
| EMC-BAC-2 | 1.07 | 1.1 | 0.989 | 0.963 | 0.896 | 1 | 0.917 | 0.894 | 0.812 | 0.255 | 0.318 | 0.296 | 0.307 | 0.275 | 0.961 | 0.886 | 0.947 | 1.05 | 0.85 | 0.76 |
| NCI-H2023 | 0.838 | 0.939 | 0.763 | 0.903 | 0.76 | 0.94 | 0.579 | 0.729 | 0.88 | 0.332 | 0.297 | 0.397 | 0.302 | 0.145 | 0.224 | 0.236 | 0.243 | 0.217 | 0.23 | 0.925 |
| NCI-H1993 | 0.67 | 0.52 | 0.765 | 0.76 | 0.723 | 0.814 | 0.764 | 0.869 | 0.782 | 0.498 | 0.53 | 0.553 | 0.482 | 0.572 | 0.593 | 0.693 | 0.663 | 0.598 | 0.547 | 0.889 |
